Patent publication US6436975B1, “Pharmaceutical compositions for ulcer” (Nicox S.A., priority 2000, dated 2002)

What was measured:
rats = test: Anti-ulcer activity, gastric lesions by absolute ethanol; format: in vivo; conditions: oral, 15 minutes before absolute ethanol (1 ml), evaluated one hour later; cimetidine 50 mg/Kg, composition 70 mg/Kg
[1] = test system: Cells of the human umbilical vein; test: Nitric oxide generation by chemiluminiscence, endothelial cells; format: cell-based; conditions: incubation of 100 μM NO-donor, 5 minutes
Protocol: (§1) Specifically the test relates to the nitric oxide generation from the NO-donors described in the present invention, among which, for instance nitroglicerin, nicorandyl, nitroprussiate, etc., when they are put in the presence of endothelial cells (method a) or platelets (method b)
The incubation medium (physiologic solvent, for example Tyrode) has been then analyzed to determine the capability to generate NO, by:
1) the nitric oxide disclosure by chemiluminiscence;
As regards the chemiluminiscence analysis, an amount equivalent to 100 ul was injected in the reaction chamber of a chemiluminiscence analyzer containing glacial acetic acid and potassium iodide. Nitrites/nitrates present in the medium under these conditions are converted into NO which is then determined after its reaction with ozone, with consequent light generation. As it usually occurs in the devices measuring the chemiluminiscence, the produced luminiscence is directly proportional to the generated NO levels and can be measured by the suitable photomultiplier unit of a chemiluminiscence analyzer.
The photomultiplier converts the incident light into electric voltage, which is then quantitatively recorded. On the basis of a calibration curve, prepared with scalar nitrite concentrations, it was possible to quantitatively determine the generated NO concentration. […]

Washed human platelets = test: Nitric oxide generation by chemiluminiscence, platelets; format: cell-based; conditions: incubation of 100 μM NO-donor, 5 minutes
Protocol: as §1
Washed human platelets, prepared analogously with what described by Radomski et al, (Br.J. Pharmacol. 92, 639-1987), were used. 0.4 ml alicuots were incubated with scalar NO-donor concentrations (1-100 μg/ml) for 5 minutes. The incubation medium (e.g. Tyrode) was then analyzed to determine the capability to generate NO, by determination of nitric oxide bv chemiluminiscence and CGMP, with the modalities described in the previous paragraph, for the analyses carried out on the endothelial cells. As to the determination by chemiluminiscence, also in this case, on the basis of a calibration curve, prepared with scalar nitrite concentrations, it was possible to quantitatively determine the generated NO concentration. For example, after incubation of 100 μM of nicorandyl, an amount equal to 35 μM of NO was generated.

Compound | Gastric Damage (rats) [%] | generated NO concentration [1] | generated NO concentration (Washed human platelets) [µM]
CN/C(=N/CCSCc1nc[nH]c1C)NC#N [Cimetidine] | 100 | – | –
O=C(NCCO[N+](=O)[O-])c1cccnc1 [nicorandyl, N-[2-(nitroxy)ethyl]-3-pyridine-carboxamide] | – | about 10 μM | 35
